Earlier results, collected in patent publication US9682037B2, “Non-mucoadhesive film dosage forms” (APR APPLIED PHARMA RESEARCH S.A., priority 2006, dated 2017).
Where a name gives a salt, the structure may show the parent alone. Read-outs that look alike come from different tables or passages of the source.

Experiments:
[1] = oral
[2] = oral 5 mg once daily for 10 days, normal healthy volunteers

COc1ccc2c3c1O[C@H]1C[C@@H](O)C=C[C@@]31CCN(C)C2 [Galantamine HBr]
Tmax (fasted): Tmax = ca. 60 minutes (fasted)
Absolute Bioavailability (in vivo): Absolute bioavailability −= ca. 90%
Administration with food delays absorption (Tmax) by (with food): 1.5 h

Clc1ccc2c(c1)CCc1cccnc1C2=C1CCNCC1 [Desloratadine, 8-chloro, 6,11-dihydro-11-(4-piperdinylidene)-5H-benzo[5,6]cyclohepta[1,2-b]pyridine]
AUC [2]: AUC = 56.9 ng hr/ml*
Tmax [2]: Tmax = 3.0 hours*

CCN(C)C(=O)Oc1cccc([C@H](C)N(C)C)c1 [Rivastigmine Tartrate]
Absolute Bioavailability (3.0 mg dose): Absolute Bioavailability = ca. 36% for 3.0 mg
increase in AUC on doubling dose (doubling dose from 3 to 6 mg BID): Doubling dose from 3 to 6 mg BID → three fold
Tmax (fasted): Tmax = 1.0 hours (fasted state)
Linearity / dose proportionality of pharmacokinetics (result in words): Linear pharmokinetics up to 3 mg BID
Administration with food delays absorption (Tmax) by (with food): 1.5 h
Food decreases/lowers Cmax by (with food): ~30%

CNC[C@H](O)c1cccc(O)c1 [phenylephrine]
absolute bioavailability when ingested orally [1]: approximately 40%
time to peak plasma concentrations [1]: 1 to 2 h

CCCc1nc(C)c2c(=O)[nH]c(-c3cc(S(=O)(=O)N4CCN(CC)CC4)ccc3OCC)nn12 [Vardenafil HCl]
Tmax (fasted): 0.5 to 2 h
Tmax median (fasted): 1 h
Cmax (fasted, 20 mg dose): 10 to 25 ng/mL
Cmax median (fasted, 20 mg dose): ~18 ng/mL
Administration with high fat meal lowers Cmax by (high fat meal): Cmax by ca. 18-50%
Absolute Bioavailability (in vivo): Absolute bioavailability = ca. 15%

Cc1cc2c(s1)Nc1ccccc1N=C2N1CCN(C)CC1 [Olanzapine, 2-methyl-4-(4-methyl-1-piperazinyl)-10H-thieno[2,3-b][1,5]benzodiazepine]
steady state conc. relative to conc. after single doses (administration once daily): ca. twice the conc. after single doses
Absolute Bioavailability (in vivo): Absolute Bioavailability = ca. 60%
Tmax (in vivo): Tmax = 6.0 hours
Linearity / dose proportionality of pharmacokinetics (result in words): Linear pharmacokinetics over clinical dosing

Cc1nccn1CC1CCc2c(c3ccccc3n2C)C1=O (racemic) [Ondansetron Base, (±) 1,2,3,9 tetrahydro-9-methyl-3-[(2-methyl-1H-imidazol-1-yl)methyl]-4H-carbazol-4-one]
Bioavailability (8 mg tablet): (56% for 8 mg tablet)
Bioavailability in Healthy Subjects (healthy subjects): Bioavailability in Healthy Subjects = ca. 45-75%
Tmax (in vivo): Tmax = 1.5-2.5 Hours hours
Effect of food on absorption (result in words): Bioavailability slightly enhanced by food
Linearity / dose proportionality of pharmacokinetics (result in words): Plasma concentrations are not dose

Cc1nc2n(c(=O)c1CCN1CCC(c3noc4cc(F)ccc34)CC1)CCCC2 [Risperidone]
Absolute Bioavailability (in vivo): Absolute Bioavailability = ca. 70% (CV = 25%)
Tmax (in vivo): Tmax = 1.0 hour hours

CNS(=O)(=O)Cc1ccc2[nH]cc(CCN(C)C)c2c1 [Sumatriptan Succinate, 3-[2-(dimethylamino)ethyl]-N-methyl-indole-5-methanesulfonamide]
Cmax (25 mg): 18 ng/mL
Cmax range (25 mg): 7 to 47 ng/mL
Cmax (100 mg): 51 ng/mL
Cmax range (100 mg): (range 28-100 ng/ml) (100 mg)
High fat meal: AUC increased by (100 mg tablets): 12%
High fat meal: Cmax increased by (100 mg tablets): 15%
Tmax (during migraine attack): ~2.5 h
Absolute Bioavailability (in vivo): Absolute bioavailability = ca. 15%
Cmax during a migraine attack versus when migraine free (in vivo): Cmax is same during a migraine attack and when
Linearity / dose proportionality of pharmacokinetics (result in words): Single dose → dose proportionality in extent of
Tmax (when migraine free): ~2.0 h

O=C1Nc2ccc(Cl)cc2C(c2ccccc2Cl)=NC1O (centres unmarked) [Lorazepam]
Cmax (2 mg): 20 ng/mL
Absolute Bioavailability (in vivo): Absolute bioavailability = ca. 90%
Tmax (in vivo): Tmax = ca. 120 minutes
Linearity / dose proportionality of pharmacokinetics (result in words): dose proportionate

O=C1CN=C(c2ccccc2Cl)c2cc([N+](=O)[O-])ccc2N1 [Clonazepam]
Absolute Bioavailability (in vivo): Absolute bioavailability = ca. 90%
Tmax (in vivo): Tmax = 1-4 hours

CCCc1nn(C)c2c(=O)[nH]c(-c3cc(S(=O)(=O)N4CCN(C)CC4)ccc3OCC)nc12 [Sildenafil Citrate]
Tmax (fasted): 0.5 to 2 h
Cmax (fasted, 100 mg dose): Cmax = ca. 450 ng/ml.(fasted) (100 mg dose)
Absolute Bioavailability (in vivo): Absolute bioavailability = ca. 40%

Cc1nnc2n1-c1ccc(Cl)cc1C(c1ccccc1)=NC2 [Alprazolam]
Tmax (in vivo): Tmax = 1-2 hours
Cmax (over 0.3-3.0 mg dose range): Cmax = 8.0-37 ng/ml over 0.3-3.0 mg dose range
Linearity / dose proportionality of pharmacokinetics (result in words): Plasma levels proportionate to dose given
